For two molecules, EC50 results are on record in patent EP3046573B1, “AMYLIN ANALOGUES” (Zealand Pharma A/S, priority 2013, dated 2015).

Read-outs that look alike come from different tables or passages of the source. Numbered stars: 1 amine (or outer) side, 2 acyl side, 3 side chain; on linkers, the order of the positions; unused ones are H or OH. Bridge positions count the residues as written; N and C are the ends. Square brackets hold non-standard residues; d marks the D form. Peptide text beside a SMILES is read from it. * marks the point of attachment. C20 diacid = O=C(O)CCCCCCCCCCCCCCCCCCC(=O)*; γGlu = O=C(O)[C@H](CCC(=O)[*:2])N[*:1]; NMeI = CC[C@H](C)[C@H](NC)C(=O)O; Sar = CNCC(=O)O

The target in assay [1] is T1, human calcitonin receptor (hCTR2) (Homo sapiens, UniProt P30988).
T1 construct: expressed in transfected cells
T1 sequence (P30988 25-474): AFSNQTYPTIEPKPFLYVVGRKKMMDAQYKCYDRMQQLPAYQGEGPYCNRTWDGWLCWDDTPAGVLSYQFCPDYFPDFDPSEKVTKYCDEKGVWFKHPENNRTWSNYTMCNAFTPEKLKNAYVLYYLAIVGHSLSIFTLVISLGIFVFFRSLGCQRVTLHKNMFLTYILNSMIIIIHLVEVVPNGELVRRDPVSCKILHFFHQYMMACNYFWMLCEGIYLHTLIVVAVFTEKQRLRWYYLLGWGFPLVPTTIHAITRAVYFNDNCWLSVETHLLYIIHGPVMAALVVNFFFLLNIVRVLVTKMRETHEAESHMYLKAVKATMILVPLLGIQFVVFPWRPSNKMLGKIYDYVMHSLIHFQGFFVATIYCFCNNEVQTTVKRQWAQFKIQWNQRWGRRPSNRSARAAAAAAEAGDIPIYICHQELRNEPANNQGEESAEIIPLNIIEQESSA
Put plainly: hCTR2 assay: induction of cAMP (AlphaScreen cAMP Assay kit) in COS7 cells expressing hCTR2. It is filed as cell-based. Conditions: cAMP induction in COS7 cells expressing hCTR2; average of a minimum of 3 determinations; read-out: hCTR2 EC50. Summed up: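 Peptide-induced cAMP in hCTR2-expressing COS7 cells, 15 min at 37° C with phosphodiesterase inhibitor IBMX (100 µM), detected by AlphaScreen; potency from 4PL curves.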
A general note: In Alpha technology, singlet oxygen from a donor bead excites a nearby acceptor bead.

The target of assay [2] is T2, human amylin receptor 3 (hAMYR3) consisting of hCTR2 co-expressed with human Receptor Activity Modifying Protein 3 (hRAMP3) (Homo sapiens, UniProt O60896+P30988).
T2 construct: expressed in transfected cells
T2 sequence (P30988 25-474): T1 sequence (P30988 25-474)
T2 sequence (O60896 24-148 partner): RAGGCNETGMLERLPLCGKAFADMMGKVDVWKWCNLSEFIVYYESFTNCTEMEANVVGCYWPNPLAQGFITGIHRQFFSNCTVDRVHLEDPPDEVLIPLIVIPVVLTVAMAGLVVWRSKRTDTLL
Put plainly: hAMYR3 assay: induction of cAMP (AlphaScreen cAMP Assay kit) in COS7 cells expressing hAMYR3. In kind it is cell-based. Summed up:
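cAMP accumulation read by AlphaScreen in lysates of RAMP-naive COS7 cells stably transfected with hCTR2 plus hRAMP3. Cells exposed to peptide dilutions for 15 min, 37° C, with 100 µM IBMX; 4PL fitting gave EC50 and efficacy relative to pramlintide.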

For `CC[C@H](C)[C@@H](C(=O)N[C@@H](CC(C)C)C(=O)N1CCC[C@H]1C(=O)N1CCC[C@H]1C(=O)N[C@H](C(=O)N[C@@H](CC(N)=O)C(=O)N[C@H](C(=O)NCC(=O)N[C@@H](CO)C(=O)N[C@@H](CC(N)=O)C(=O)N[C@H](C(=O)N1CCC[C@H]1C(N)=O)[C@@H](C)O)C(C)C)[C@@H](C)O)N(C)C(=O)CN(C)C(=O)[C@H](Cc1ccccc1)NC(=O)[C@H](CC(N)=O)NC(=O)[C@H](CC(N)=O)NC(=O)[C@H](CO)NC(=O)[C@H](CO)NC(=O)[C@H](Cc1c[nH]cn1)NC(=O)[C@H](Cc1c[nH]cn1)NC(=O)[C@H](CC(C)C)NC(=O)[C@H](Cc1ccccc1)NC(=O)[C@H](CCC(=O)O)NC(=O)[C@H](C)NC(=O)[C@H](CC(C)C)NC(=O)[C@H](CCCNC(=N)N)NC(=O)[C@H](CCC(N)=O)NC(=O)[C@@H](NC(=O)[C@H](C)NC(=O)[C@@H]1CSSC[C@H](NC(=O)[C@H](CCCNC(=N)N)NC(=O)CC[C@H](NC(=O)CCCCCCCCCCCCCCCCCCC(=O)O)C(=O)O)C(=O)N[C@@H](CC(N)=O)C(=O)N[C@@H]([C@@H](C)O)C(=O)N[C@@H](C)C(=O)N[C@@H]([C@@H](C)O)C(=O)N1)[C@@H](C)O` [Compound 176, [19CD]-isoGlu-RC()NTATC()ATQRLAEFLHHSSNNF-Gly(Me)-Ile(Me)-LPPTNVGSNTP-NH2] ({C20 diacid-γGlu}-RCNTATCATQRLAEFLHHSSNNF[Sar][NMeI]LPPTNVGSNTP-NH2; disulfide 2-7), the 50% effective concentration (EC50) (in general, the concentration that produces a half-maximal response) in assay [1] came to 0.12 nM; in assay [2] (cAMP induction in COS7 cells expressing hAMYR3, average of a minimum of 3 determinations, read-out: hAMY R3 EC50), 0.17 nM.

Regarding `CC[C@H](C)[C@H](NC(=O)[C@@H]1CCCN1C(=O)CNC(=O)[C@H](Cc1ccccc1)NC(=O)[C@H](CC(N)=O)NC(=O)[C@H](CC(N)=O)NC(=O)[C@H](CO)NC(=O)[C@H](CO)NC(=O)[C@H](Cc1c[nH]cn1)NC(=O)[C@H](Cc1c[nH]cn1)NC(=O)[C@H](CC(C)C)NC(=O)[C@H](Cc1ccccc1)NC(=O)[C@H](CCC(=O)O)NC(=O)[C@H](C)NC(=O)[C@H](CC(C)C)NC(=O)[C@H](CCCNC(=N)N)NC(=O)[C@H](CCC(N)=O)NC(=O)[C@@H](NC(=O)[C@H](C)NC(=O)[C@@H]1CSSC[C@H](NC(=O)[C@H](CCCNC(=N)N)NC(=O)CC[C@H](NC(=O)CCCCCCCCCCCCCCCCCCC(=O)O)C(=O)O)C(=O)N[C@@H](CC(N)=O)C(=O)N[C@@H]([C@@H](C)O)C(=O)N[C@@H](C)C(=O)N[C@@H]([C@@H](C)O)C(=O)N1)[C@@H](C)O)C(=O)N[C@@H](CC(C)C)C(=O)N1CCC[C@H]1C(=O)N1CCC[C@H]1C(=O)N[C@H](C(=O)N[C@@H](CC(N)=O)C(=O)N[C@H](C(=O)NCC(=O)N[C@@H](CO)C(=O)N[C@@H](CC(N)=O)C(=O)N[C@H](C(=O)N1CCC[C@H]1C(N)=O)[C@@H](C)O)C(C)C)[C@@H](C)O` [NN96, N-α-[(S)-4-carboxy-4-(19-carboxynonadecanoylamino)butyryl]-[Arg1,Glu14,His17,Pro37]-pramlintide, reference compound] ({C20 diacid-γGlu}-RCNTATCATQRLAEFLHHSSNNFGPILPPTNVGSNTP-NH2; disulfide 2-7), the concentration giving a half-maximal response (EC50) is 0.089 nM in assay [1] and 0.15 nM in assay [2].
